# Assay results as given in PubChem BioAssay (NCI).
#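 A five-concentration, 48-hour dose response in 96-well plates underlies each endpoint, interpolated linearly between surrounding concentrations. GI50 is the concentration that inhibits growth by half. TGI: total growth inhibition.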
# Columns and labels:
# Test in all cases: NCI tumour cell line growth inhibition, 48 h
# A549 NSCLC = test system: A549 NSCLC
# HCT-116 colon = test system: HCT-116 colon
# MALME-3M melanoma = test system: MALME-3M melanoma
# CAKI-1 renal = test system: CAKI-1 renal
# A498 renal = test system: A498 renal
# UACC-62 melanoma = test system: UACC-62 melanoma
# SF-268 CNS = test system: SF-268 CNS
# NCI-H23 lung = test system: NCI-H23 lung
# SF-295 CNS = test system: SF-295 CNS
# ACHN renal = test system: ACHN renal
structure (smiles),measurement,setting,value
O=C1NI(C#Cc2ccccc2)c2ccccc21,TGI,A549 NSCLC,> 100 µM
same,TGI,HCT-116 colon,> 100 µM
same,TGI,MALME-3M melanoma,> 100 µM
same,TGI,CAKI-1 renal,> 100 µM
same,TGI,A498 renal,> 100 µM
same,TGI,UACC-62 melanoma,> 100 µM
same,TGI,SF-268 CNS,> 100 µM
same,TGI,NCI-H23 lung,> 100 µM
same,TGI,SF-295 CNS,> 100 µM
COc1cc(C2CC(c3cccc(Nc4ccncc4)c3)=NN2c2ccc(Cl)cc2)cc(OC)c1OC (configuration not stated),GI50,MALME-3M melanoma,1.66 µM
same,TGI,MALME-3M melanoma,3.11 µM
same,GI50,CAKI-1 renal,1.41 µM
same,TGI,CAKI-1 renal,2.76 µM
same,GI50,A498 renal,1.32 µM
same,TGI,A498 renal,6.26 µM
same,GI50,UACC-62 melanoma,1.69 µM
same,TGI,UACC-62 melanoma,3.14 µM
same,GI50,SF-268 CNS,1.58 µM
same,TGI,SF-268 CNS,3.06 µM
same,GI50,NCI-H23 lung,1.67 µM
same,TGI,NCI-H23 lung,3.28 µM
same,GI50,ACHN renal,1.54 µM
same,TGI,ACHN renal,2.88 µM
same,GI50,SF-295 CNS,1.68 µM
same,TGI,SF-295 CNS,3.05 µM
COc1ccc2c(C(=O)c3cn(CCN4CCOCC4)c4ccccc34)cccc2c1,TGI,A549 NSCLC,> 100 µM
same,TGI,HCT-116 colon,> 100 µM
same,TGI,MALME-3M melanoma,> 75.7 µM
same,TGI,CAKI-1 renal,> 100 µM
same,TGI,A498 renal,> 100 µM
same,TGI,UACC-62 melanoma,> 100 µM
same,TGI,SF-268 CNS,> 100 µM
same,TGI,NCI-H23 lung,> 100 µM
same,TGI,ACHN renal,> 100 µM
same,TGI,SF-295 CNS,> 54.8 µM
COC(C)(C)OCCN1CCN(CCN2C3=C(C=C(C(C)=O)C3)Sc3ccccc32)CC1,TGI,A549 NSCLC,96.7 µM
same,TGI,HCT-116 colon,33.6 µM
same,TGI,MALME-3M melanoma,36.6 µM
same,TGI,CAKI-1 renal,48.2 µM
same,TGI,A498 renal,34 µM
same,TGI,UACC-62 melanoma,29.4 µM
same,TGI,SF-268 CNS,43.2 µM
same,TGI,NCI-H23 lung,73.5 µM
same,TGI,ACHN renal,35.5 µM
same,TGI,SF-295 CNS,36.7 µM
CC1(C)OC2C(O)C(CO)OC2(C(F)F)O1 (configuration not stated),TGI,A549 NSCLC,> 100 µM
same,TGI,HCT-116 colon,> 100 µM
same,TGI,MALME-3M melanoma,> 100 µM
same,TGI,CAKI-1 renal,> 100 µM
same,TGI,A498 renal,> 100 µM
same,TGI,UACC-62 melanoma,> 100 µM
same,TGI,SF-268 CNS,> 100 µM
same,TGI,NCI-H23 lung,> 100 µM
same,TGI,ACHN renal,> 100 µM
same,TGI,SF-295 CNS,> 100 µM
CCCOC(=O)CNC(=O)OC(C)(C)C,TGI,A549 NSCLC,> 100 µM
same,TGI,HCT-116 colon,> 100 µM
same,TGI,MALME-3M melanoma,> 100 µM
same,TGI,CAKI-1 renal,> 100 µM
same,TGI,UACC-62 melanoma,> 100 µM
same,TGI,SF-268 CNS,> 100 µM
same,TGI,NCI-H23 lung,> 100 µM
same,TGI,ACHN renal,> 100 µM
same,TGI,SF-295 CNS,> 100 µM
Cc1cccc2c1Sc1ccccc1C2NC(=O)CCN(C)C (configuration not stated),TGI,A549 NSCLC,> 100 µM
same,TGI,HCT-116 colon,> 100 µM
same,TGI,UACC-62 melanoma,> 100 µM
same,TGI,SF-268 CNS,> 100 µM
same,TGI,NCI-H23 lung,> 100 µM
same,TGI,ACHN renal,> 100 µM
C=CCN(C(=O)CNC(=O)C(F)(F)F)c1cc(OCc2ccccc2)c2c(c1)c(C)cn2S(=O)(=O)c1ccccc1,TGI,A549 NSCLC,> 100 µM
same,TGI,HCT-116 colon,> 100 µM
same,TGI,MALME-3M melanoma,> 100 µM
same,TGI,CAKI-1 renal,> 100 µM
same,TGI,UACC-62 melanoma,> 100 µM
same,TGI,SF-268 CNS,> 100 µM
same,TGI,NCI-H23 lung,> 100 µM
same,TGI,ACHN renal,> 100 µM
same,TGI,SF-295 CNS,> 100 µM
COc1ccc(-c2nc3ncccn3c2-c2ccc(SC)cc2)cc1,TGI,A549 NSCLC,9.88 µM
same,TGI,HCT-116 colon,5.15 µM
same,TGI,CAKI-1 renal,4.96 µM
same,TGI,UACC-62 melanoma,13 µM
same,TGI,SF-268 CNS,3.15 µM
same,TGI,NCI-H23 lung,> 100 µM
same,TGI,ACHN renal,41 µM
same,TGI,SF-295 CNS,3 µM
CCOC(=O)c1c2c(n(Cc3ccccc3)c1C)C(=O)C(=O)c1ccccc1-2,TGI,A549 NSCLC,1.35 µM
same,TGI,HCT-116 colon,0.692 µM
same,TGI,MALME-3M melanoma,0.191 µM
same,TGI,CAKI-1 renal,0.984 µM
same,GI50,A498 renal,2.84 µM
same,TGI,A498 renal,5.67 µM
same,TGI,UACC-62 melanoma,1.65 µM
same,TGI,SF-268 CNS,1.27 µM
same,TGI,NCI-H23 lung,1.07 µM
same,TGI,ACHN renal,1.92 µM
same,TGI,SF-295 CNS,0.984 µM
Nc1n[nH]c(=O)c2c1c(I)cn2C1OC(CO)C(O)C1O (configuration not stated),TGI,A549 NSCLC,> 100 µM
same,TGI,HCT-116 colon,> 100 µM
same,TGI,MALME-3M melanoma,17.3 µM
same,TGI,A498 renal,> 100 µM
same,TGI,UACC-62 melanoma,13.3 µM
same,TGI,SF-268 CNS,25.7 µM
same,TGI,NCI-H23 lung,1.96 µM
same,TGI,ACHN renal,> 100 µM
same,TGI,SF-295 CNS,9.74 µM
CN(C)CCNC(=O)c1cccc2ccc(-c3ccc(F)cc3)nc12,TGI,A549 NSCLC,17.9 µM
same,TGI,HCT-116 colon,13.3 µM
same,TGI,MALME-3M melanoma,13.6 µM
same,TGI,CAKI-1 renal,15.3 µM
same,TGI,A498 renal,17.5 µM
same,TGI,UACC-62 melanoma,13.4 µM
same,TGI,SF-268 CNS,22.2 µM
same,TGI,NCI-H23 lung,17.1 µM
same,TGI,SF-295 CNS,19.7 µM
O=C(Nc1ccc([N+](=O)[O-])cc1[N+](=O)[O-])C(=O)C(C(=O)c1ccc2ccccc2c1)C1OC(=O)c2ccccc21 (configuration not stated),TGI,A549 NSCLC,61.7 µM
same,TGI,HCT-116 colon,32 µM
same,TGI,CAKI-1 renal,54 µM
same,TGI,A498 renal,52.7 µM
same,TGI,UACC-62 melanoma,30.2 µM
same,TGI,SF-268 CNS,43.1 µM
same,TGI,NCI-H23 lung,26 µM
same,TGI,ACHN renal,73.2 µM
same,TGI,SF-295 CNS,55.1 µM
Oc1cn(-c2ccc(Cl)cc2)nc1-c1n[nH]c(=S)n1-c1ccccc1,TGI,A549 NSCLC,35.6 µM
same,TGI,HCT-116 colon,18.7 µM
same,TGI,MALME-3M melanoma,62.9 µM
same,TGI,CAKI-1 renal,35.3 µM
same,TGI,A498 renal,37.5 µM
same,TGI,UACC-62 melanoma,28 µM
same,TGI,SF-268 CNS,64.2 µM
same,TGI,NCI-H23 lung,23.9 µM
same,TGI,ACHN renal,> 100 µM
same,TGI,SF-295 CNS,19.8 µM
COc1cc(/C=C/C(=O)Oc2ccc(NC(C)=O)cc2)ccc1C(=O)O/C=C/c1ccccc1,TGI,A549 NSCLC,> 100 µM
same,TGI,HCT-116 colon,> 100 µM
same,TGI,MALME-3M melanoma,> 100 µM
same,TGI,A498 renal,> 100 µM
same,TGI,UACC-62 melanoma,> 100 µM
same,TGI,SF-268 CNS,> 100 µM
same,TGI,NCI-H23 lung,> 100 µM
same,TGI,SF-295 CNS,> 100 µM
Nc1ccccc1N=Cc1cc2cc([N+](=O)[O-])ccc2s1,TGI,A549 NSCLC,30.9 µM
same,TGI,HCT-116 colon,> 100 µM
same,TGI,MALME-3M melanoma,81.7 µM
same,TGI,CAKI-1 renal,> 100 µM
same,TGI,A498 renal,32.5 µM
same,TGI,UACC-62 melanoma,38.1 µM
same,TGI,SF-268 CNS,35.6 µM
same,TGI,NCI-H23 lung,> 100 µM
same,TGI,ACHN renal,40.3 µM
same,TGI,SF-295 CNS,> 100 µM
Cc1cc2c(cc1C(=O)c1ccc(N)cc1)OCO2,TGI,A549 NSCLC,> 100 µM
same,TGI,HCT-116 colon,> 100 µM
same,TGI,MALME-3M melanoma,> 100 µM
same,TGI,CAKI-1 renal,66.4 µM
same,TGI,UACC-62 melanoma,> 100 µM
same,TGI,SF-268 CNS,> 100 µM
same,TGI,NCI-H23 lung,> 100 µM
same,TGI,ACHN renal,> 100 µM
same,TGI,SF-295 CNS,86 µM
